Test results: US12528814B2, “Bifunctional degraders of interleukin-1 receptor-associated kinases and therapeutic use thereof” (NURIX THERAPEUTICS, INC., priority 2020, dated 2026)
Read-outs that look alike come from different tables or passages of the source.

What was measured:
IRAK4 [1] = target: T1, IRAK4 (Homo sapiens (Human), UniProt Q9NWZ3); test: IRAK4 Biochemical HTRF Kinase Assay; settings: read-out: IRAK4 HTRF biochemical: IC50
In short: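 IC50 values derive from non-linear regression of sixteen concentrations in duplicate. Kinase reaction ran 90 min at ambient temperature after adding 5 μM STK-S1 substrate, 10 mM ATP and 10 mM MgCl2 (reaction-solution levels, pre-dilution to 10 μl); phospho-peptide detected by HTRF after 60 min.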
Target sequence in this assay (Q9NWZ3 whole entry, species assumed): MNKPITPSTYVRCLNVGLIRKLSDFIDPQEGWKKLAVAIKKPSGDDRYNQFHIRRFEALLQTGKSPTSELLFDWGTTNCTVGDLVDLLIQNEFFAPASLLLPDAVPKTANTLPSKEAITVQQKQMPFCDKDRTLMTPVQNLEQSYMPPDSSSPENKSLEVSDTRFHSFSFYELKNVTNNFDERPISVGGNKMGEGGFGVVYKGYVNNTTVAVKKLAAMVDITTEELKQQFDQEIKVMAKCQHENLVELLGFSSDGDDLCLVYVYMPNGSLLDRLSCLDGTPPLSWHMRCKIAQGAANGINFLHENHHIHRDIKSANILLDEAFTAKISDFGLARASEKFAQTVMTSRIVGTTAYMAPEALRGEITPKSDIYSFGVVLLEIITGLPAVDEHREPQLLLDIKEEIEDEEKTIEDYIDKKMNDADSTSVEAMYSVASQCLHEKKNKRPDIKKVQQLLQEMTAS

IRAK4 [2] = target: T1, IRAK4; test: IRAK4 Degradation HiBiT Assay; settings: HiBiT-tagged Jurkat cells, 4 hrs; for Dmax: Jurkat; for DC50: read-out: Cellular IRAK4 HiBiT: DC50
Target sequence in this assay (Q9NWZ3 whole entry): as the sequence (Q9NWZ3 whole entry, species assumed) above
Experimental: Compound dilution series (11-point, 3.16-fold dilutions in DMSO, columns 1-11 and 12-22) at 500× the final required concentrations were prepared in Labcyte LDV 384-well plates (cat. no. LP-0200) using a Labcyte Echo 550 Liquid Handler. The 500× solutions ranged from 5 mM to 0.5 μM (final assay concentration range 10 μM to 0.1 nM). Using the Echo, the 500× solutions were stamped into white, 384-well assay plates (Corning, cat. no. 3570) at 60 nL/well. […] C-terminal HiBiT-tagged Jurkat cells (polyclonal cell line or clone 8D5) were plated at 1×10^6 cells/mL, 30 μL/well (3×10^4 cells/well) in complete RPMI (10% FBS, 1% L-glutamine). Cells were incubated for 4 hrs at 32° C./6% CO2.
Following incubation, 30 uL of complete Nano-Glo HiBiT Lytic Detection Reagent (Nano-Glo HiBiT Lytic Buffer with 1:50 Nano-Glo HiBiT Lytic Substrate and 1:100 LgBiT Protein; Promega cat. no. N3040) was added. Cells were further incubated for 10 min at room temperature (RT). Luminescence units (LU) were read on an EnVision plate reader (Perkin Elmer, 0.1 sec per well). Percent IRAK4 remaining per sample was calculated as follows:
Using Graphpad Prism, % IRAK4 remaining values were plotted as a function of compound concentration.

[3] = read-out: Cellular IRAK4 HiBiT: Dmax, Table 5, multiple runs
[4] = read-out: Cellular IRAK4 HiBiT: Dmax, Table 4

SMILES	IC50 (IRAK4 [1]; Table 5, multiple runs)	Dmax (IRAK4 [2]; [3])	DC50 (IRAK4 [2]; Table 5, multiple runs)	IC50 (IRAK4 [1]; Table 4)	Dmax (IRAK4 [2]; [4])	DC50 (IRAK4 [2]; Table 4)
CNc1cc(-c2ccc3cc(C#N)cnn23)ncc1-c1nnc(N2CCN(C3CCN(C(=O)c4ccc5c(c4)C(=O)N(C4CCC(=O)NC4=O)C5=O)CC3)CC2)s1 (stereo not drawn) [Example 98, 7-(5-(5-(4-(1-(2-(2,6-dioxopiperidin-3-yl)-1,3-dioxoisoindoline-5-carbonyl)piperidin-4-yl)piperazin-1-yl)-1,3,4-thiadiazol-2-yl)-4-(methylamino)pyridin-2-yl)pyrrolo[1,2-b]pyridazine-3-carbonitrile]	0.3 nM	109%	6.58 nM	–	–	–
CNc1cc(-c2ccc3cc(C#N)cnn23)ncc1-c1nnc([C@H]2CC[C@H](NC(=O)COc3cc(-c4scnc4C)ccc3CNC(=O)[C@@H]3C[C@@H](O)CN3C(=O)[C@@H](NC(=O)C3(F)CC3)C(C)(C)C)CC2)s1 [Example 159, (2S,4R)—N-(2-(2-(((1r,4S)-4-(5-(6-(3-cyanopyrrolo[1,2-b]pyridazin-7-yl)-4-(methylamino)pyridin-3-yl)-1,3,4-thiadiazol-2-yl)cyclohexyl)amino)-2-oxoethoxy)-4-(4-methylthiazol-5-yl)benzyl)-1-((S)-2-(1-fluorocyclopropane-1-carboxamido)-3,3-dimethylbutanoyl)-4-hydroxypyrrolidine-2-carboxamide]	2.1 nM	116%	111 nM	–	–	–
CC(C)Nc1cc(-c2ccc3cc(C#N)cnn23)ncc1-c1nnc(N2CCN(C(=O)CCN3CCN(c4ccc5c(c4)C(=O)N(C4CCC(=O)NC4=O)C5=O)CC3)CC2)s1 (stereo not drawn) [Example 14, 7-(5-(5-(4-(3-(4-(2-(2,6-dioxopiperidin-3-yl)-1,3-dioxoisoindolin-5-yl)piperazin-1-yl)propanoyl)piperazin-1-yl)-1,3,4-thiadiazol-2-yl)-4-(isopropylamino)pyridin-2-yl)pyrrolo[1,2-b]pyridazine-3-carbonitrile]	0.8 nM	97%	37.2 nM	0.8 nM	99%	42.7 nM
CNc1cc(-c2ccc3cc(C#N)cnn23)ncc1-c1nnc(N2CC3CCC(C2)N3C2CCN(C(=O)c3ccc4c(c3)C(=O)N(C3CCC(=O)NC3=O)C4)CC2)s1 (stereo not drawn) [Example 162, 7-(5-(5-(8-(1-(2-(2,6-dioxopiperidin-3-yl)-3-oxoisoindoline-5-carbonyl)piperidin-4-yl)-3,8-diazabicyclo[3.2.1]octan-3-yl)-1,3,4-thiadiazol-2-yl)-4-(methylamino)pyridin-2-yl)pyrrolo[1,2-b]pyridazine-3-carbonitrile]	0.4 nM	110%	10.5 nM	–	–	–
CC(C)Nc1cc(-c2ccc3cc(C#N)cnn23)ncc1-c1nnc(N2CCC3(CCN(Cc4ccc5c(c4)C(=O)N(C4CCC(=O)NC4=O)C5=O)CC3)CC2)s1 (stereo not drawn) [Example 81, 7-(5-(5-(9-((2-(2,6-dioxopiperidin-3-yl)-1,3-dioxoisoindolin-5-yl)methyl)-3,9-diazaspiro[5.5]undecan-3-yl)-1,3,4-thiadiazol-2-yl)-4-(isopropylamino)pyridin-2-yl)pyrrolo[1,2-b]pyridazine-3-carbonitrile]	1.8 nM	81%	64.9 nM	–	–	–
Cc1ncsc1-c1ccc(CNC(=O)[C@@H]2C[C@@H](O)CN2C(=O)[C@@H](NC(=O)C2(F)CC2)C(C)(C)C)c(OCCOCCOCCOCCC(=O)N2CCN(c3nnc(-c4cnc(-c5ccc6cc(C#N)cnn56)cc4NC(C)C)s3)CC2)c1 [Example 49, (2S,4R)—N-(2-(2-(2-(2-(3-(4-(5-(6-(3-cyanopyrrolo[1,2-b]pyridazin-7-yl)-4-(isopropylamino)pyridin-3-yl)-1,3,4-thiadiazol-2-yl)piperazin-1-yl)-3-oxopropoxy)ethoxy)ethoxy)ethoxy)-4-(4-methylthiazol-5-yl)benzyl)-1-((S)-2-(1-fluorocyclopropane-1-carboxamido)-3,3-dimethylbutanoyl)-4-hydroxypyrrolidine-2-carboxamide]	4.6 nM	111%	231 nM	4.6 nM	111%	231 nM
CNc1cc(-c2ccc3cc(C#N)cnn23)ncc1-c1nnc([C@H]2CC[C@H](NC(=O)CCCCCNc3ccc4c(c3)C(=O)N(C3CCC(=O)NC3=O)C4=O)CC2)s1 (stereo partly drawn) [Example 68, N-((1r,4r)-4-(5-(6-(3-cyanopyrrolo[1,2-b]pyridazin-7-yl)-4-(methylamino)pyridin-3-yl)-1,3,4-thiadiazol-2-yl)cyclohexyl)-6-((2-(2,6-dioxopiperidin-3-yl)-1,3-dioxoisoindolin-5-yl)amino)hexanamide]	0.8 nM	101%	14.3 nM	1.79 nM	82%	47.5 nM
CNc1cc(-c2ccc3cc(C#N)cnn23)ncc1-c1nnc(C23CCC(NC(=O)CCCCCNc4ccc5c(c4)C(=O)N(C4CCC(=O)NC4=O)C5=O)(CC2)CC3)s1 (stereo not drawn) [Example 108, N-(4-(5-(6-(3-cyanopyrrolo[1,2-b]pyridazin-7-yl)-4-(methylamino)pyridin-3-yl)-1,3,4-thiadiazol-2-yl)bicyclo[2.2.2]octan-1-yl)-6-((2-(2,6-dioxopiperidin-3-yl)-1,3-dioxoisoindolin-5-yl)amino)hexanamide]	1.4 nM	70%	45.7 nM	–	–	–

Continued by falling IC50 (IRAK4 [1]; Table 5, multiple runs), values first:

IC50 (IRAK4 [1]; Table 5, multiple runs)	Dmax (IRAK4 [2]; [3])	DC50 (IRAK4 [2]; Table 5, multiple runs)	IC50 (IRAK4 [1]; Table 4)	Dmax (IRAK4 [2]; [4])	DC50 (IRAK4 [2]; Table 4)	SMILES
1.7 nM	116%	166 nM	–	–	–	CNc1cc(-c2ccc3cc(C#N)cnn23)ncc1-c1nnc(C2CCC(NC(=O)Cn3ccc(C(=O)N[C@H](C(=O)N4C[C@H](O)C[C@H]4C(=O)N[C@@H](C)c4ccc(-c5scnc5C)cc4)C(C)(C)C)n3)CC2)s1 (stereo partly drawn) [Example 125, 1-(2-(((1r,4S)-4-(5-(6-(3-cyanopyrrolo[1,2-b]pyridazin-7-yl)-4-(methylamino)pyridin-3-yl)-1,3,4-thiadiazol-2-yl)cyclohexyl)amino)-2-oxoethyl)-N—((S)-1-((2S,4R)-4-hydroxy-2-(((S)-1-(4-(4-methylthiazol-5-yl)phenyl)ethyl)carbamoyl)pyrrolidin-1-yl)-3,3-dimethyl-1-oxobutan-2-yl)-1H-pyrazole-3-carboxamide]
1.2 nM	106%	39.8 nM	–	–	–	CNc1cc(-c2ccc3cc(C#N)cnn23)ncc1-c1nnc(C23CCC(NC(=O)CN4CCN(c5ccc6c(c5)C(=O)N(C5CCC(=O)NC5=O)C6=O)CC4)(CC2)CC3)s1 (stereo not drawn) [Example 105, N-(4-(5-(6-(3-cyanopyrrolo[1,2-b]pyridazin-7-yl)-4-(methylamino)pyridin-3-yl)-1,3,4-thiadiazol-2-yl)bicyclo[2.2.2]octan-1-yl)-2-(4-(2-(2,6-dioxopiperidin-3-yl)-1,3-dioxoisoindolin-5-yl)piperazin-1-yl)acetamide]
1 nM	46%	774 nM	–	–	–	CNc1cc(-c2ccc3cc(C#N)cnn23)ncc1-c1nnc([C@H]2CC[C@@H](NC(=O)C3CCN(c4cccc5c4C(=O)N(C4CCC(=O)NC4=O)C5=O)CC3)CC2)s1 (stereo partly drawn) [Example 135, N-((1s,4s)-4-(5-(6-(3-cyanopyrrolo[1,2-b]pyridazin-7-yl)-4-(methylamino)pyridin-3-yl)-1,3,4-thiadiazol-2-yl)cyclohexyl)-1-(2-(2,6-dioxopiperidin-3-yl)-1,3-dioxoisoindolin-4-yl)piperidine-4-carboxamide]
